The source of these data is ChEMBL document CHEMBL1687804, “Comparative efficacies of human simulated exposures of telavancin and vancomycin against methicillin-resistant Staphylococcus aureus with a range of vancomycin MICs in a murine pneumonia model” (Antimicrob Agents Chemother, 2010).

For data set [1], the system named is Homo sapiens. The experiment in a line: fAUC in human at 1 gram administered every 12 hrs. The class given is ADME, organism-based. The conditions noted are these: in vivo.
Data set [2] concerns Staphylococcus aureus. The experiment in a line: Antibacterial activity against vancomycin-heteroresistant Staphylococcus aureus isolate 443 infected in neutropenic BALB/c mouse lung infection model assessed as reduction of CFU at 110 mg/kg, ip administered every 12 hrs measured after 24 hrs. The arrangement: dose 110 mg/kg. The class given is functional, organism-based.
Data set [3] relates to Staphylococcus aureus. The data set is described as follows: Antibacterial activity against vancomycin-intermediate Staphylococcus aureus isolate 454 (NRS404) infected in neutropenic BALB/c mouse lung infection model assessed as reduction of CFU at 110 mg/kg, ip administered every 12 hrs measured after 24 hrs. In kind it is functional, organism-based. The arrangement: dose 110 mg/kg.

Data set [4] has as its system Staphylococcus aureus. The experiment in a line: Antibacterial activity against vancomycin-heteroresistant Staphylococcus aureus isolate 38 (Mu3) infected in neutropenic BALB/c mouse lung infection model assessed as reduction of CFU at 110 mg/kg, ip administered every 12 hrs measured after 24 hrs. The class given is functional, organism-based. The arrangement: dose 110 mg/kg.

In data set [5] the test system is Staphylococcus aureus. The data set is described as follows: Antibacterial activity against hospital-associated methicillin-resistant Staphylococcus aureus isolate 152 infected in neutropenic BALB/c mouse lung infection model assessed as reduction of CFU at 110 mg/kg, ip administered every 12 hrs measured after 24 hrs. In kind it is functional, organism-based. More on the design: dose 110 mg/kg.

In data set [6] the test system is Staphylococcus aureus. The experiment in a line: Antibacterial activity against community-associated methicillin-resistant Staphylococcus aureus isolate 145 infected in neutropenic BALB/c mouse lung infection model assessed as reduction of CFU at 110 mg/kg, ip administered every 12 hrs measured after 24 hrs. In kind it is functional, organism-based. More on the design: dose 110 mg/kg.

Data set [7] concerns Mus musculus. The data set is described as follows: fAUC in BALB/c mouse at 110 mg/kg, sc administered every 12 hrs. To be noted: in vivo.
Data set [8] relates to Staphylococcus aureus. The data set is described as follows: Antibacterial activity against hospital-associated methicillin-resistant Staphylococcus aureus isolate 336 infected in neutropenic BALB/c mouse lung infection model assessed as reduction of CFU at 110 mg/kg, ip administered every 12 hrs measured after 24 hrs. The arrangement: dose 110 mg/kg. The class given is functional, organism-based.

The subject of data set [9] is Staphylococcus aureus. The experiment in a line: Antibacterial activity against hospital-associated methicillin-resistant Staphylococcus aureus isolate 56 (494) infected in neutropenic BALB/c mouse lung infection model assessed as reduction of CFU at 110 mg/kg, ip administered every 12 hrs measured after 24 hrs. The class given is functional, organism-based. The arrangement: dose 110 mg/kg.

Data set [10] deals with Staphylococcus aureus. The data set is described as follows: Antibacterial activity against hospital-associated methicillin-resistant Staphylococcus aureus isolate 360 infected in neutropenic BALB/c mouse lung infection model assessed as reduction of CFU at 110 mg/kg, ip administered every 12 hrs measured after 24 hrs. More on the design: dose 110 mg/kg. The class given is functional, organism-based.

Data set [11] is described as follows: AUC (0 to 12 hrs) in BALB/c mouse at 110 mg/kg, sc. The conditions noted are these: plasma.
For data set [12], the system named is Staphylococcus aureus. The experiment in a line: Antibacterial activity against vancomycin-intermediate Staphylococcus aureus isolate 453 (NRS23) infected in neutropenic BALB/c mouse lung infection model assessed as reduction of CFU at 110 mg/kg, ip administered every 12 hrs measured after 24 hrs. The class given is functional, organism-based. The arrangement: dose 110 mg/kg.

The test system of data set [13] is Staphylococcus aureus. The data set is described as follows: Antibacterial activity against vancomycin-intermediate Staphylococcus aureus isolate 440 (A6298) infected in neutropenic BALB/c mouse lung infection model assessed as reduction of CFU at 110 mg/kg, ip administered every 12 hrs measured after 24 hrs. The arrangement: dose 110 mg/kg. The class given is functional, organism-based.

Data set [14] has as its system Staphylococcus aureus. The data set is described as follows: Antibacterial activity against vancomycin-intermediate Staphylococcus aureus isolate 435 infected in neutropenic BALB/c mouse lung infection model assessed as reduction of CFU at 110 mg/kg, ip administered every 12 hrs measured after 24 hrs. The class given is functional, organism-based. More on the design: dose 110 mg/kg.

The subject of data set [15] is Staphylococcus aureus. The experiment in a line: Antibacterial activity against community-associated methicillin-resistant Staphylococcus aureus isolate 156 infected in neutropenic BALB/c mouse lung infection model assessed as reduction of CFU at 110 mg/kg, ip administered every 12 hrs measured after 24 hrs. The class given is functional, organism-based. The arrangement: dose 110 mg/kg.

For data set [16], the system named is Staphylococcus aureus. The data set is described as follows: Antibacterial activity against hospital-associated methicillin-resistant Staphylococcus aureus isolate 412 infected in neutropenic BALB/c mouse lung infection model assessed as reduction of CFU at 110 mg/kg, ip administered every 12 hrs measured after 24 hrs. In kind it is functional, organism-based. More on the design: dose 110 mg/kg.

Each structure is given as a SMILES string. Calls of active or inactive are those of the source. The rule behind the calls is not given here.

In general, AUC(0-t) refers to exposure summed from dosing to a finite time, without extrapolation to infinity. `CN[C@H](CC(C)C)C(=O)N[C@H]1C(=O)N[C@@H](CC(N)=O)C(=O)N[C@H]2C(=O)N[C@H]3C(=O)N[C@H](C(=O)N[C@H](C(=O)O)c4cc(O)cc(O)c4-c4cc3ccc4O)[C@H](O)c3ccc(c(Cl)c3)Oc3cc2cc(c3O[C@@H]2O[C@H](CO)[C@@H](O)[C@H](O)[C@H]2O[C@H]2C[C@](C)(N)[C@H](O)[C@H](C)O2)Oc2ccc(cc2Cl)[C@H]1O` [VANCOMYCIN]: the fAUC was found to be 208 µg·h/mL in data set [1] and 196 µg·h/mL in data set [7]. The result in data set [2], in data set [3], in data set [4], in [5], in data set [6] and in data set [8] was Active. The result in [9], in [10], in [12], in [13], in [14] and in [15] was Active. For the same compound, the outcome in data set [16] was Active. In addition, the area under the curve AUC(0-t) at 12 h in data set [11] worked out at 140 µg·h/mL.
